Measured values: patent publication US11098090B2, “Mycobacteria tuberculosis chaperonin 60.1 peptides and uses thereof” (Revolo Biotherapeutics Limited, priority 2017, dated 2021)
“Also recorded” adds a separate entry of the source. Where no end group is shown, it is not given here.

Assays:
[1] = Plasma stability at 37° C., mouse plasma; assay type: in vitro ADME
Description: (§1) Plasma Stability in Mouse, Rat and Human Plasma at 37° C.
(§2) Plasma: mouse (C57 Black 6 Male), rat (Sprague Dawley) and human containing heparin as an anti-coagulant.
(§3) Plasma samples in duplicate were incubated with peptide at 3 μM in a 600 μl volume at 37° C. with shaking. 50 μl aliquots were withdrawn after 2, 5, 30, 60 and 120 mins and quenched into 150 μl of ice-cold methanol containing the internal standard (tolbutamide). Samples were stored at −20° C. for 2 hours to allow protein precipitation. Samples were then centrifuged at 2500×g and the resulting supernatants transferred to a 96 well plate for LC-MS/MS analysis. Thalf was calculated in all matrices for each peptide.

[2] = Plasma stability at 37° C., human plasma; assay type: in vitro ADME
Description: as §1, §2, §3

[3] = Plasma stability at 37° C., rat plasma; assay type: in vitro ADME
Description: as §1, §2, §3

[4] = tested on: LPS induced lung neutrophil influx; assay: LPS mouse model of lung inflammation (BAL neutrophil count); assay type: in vivo; details: for efficacy against LPS induced lung neutrophil influx: 50 pg/mouse i.v.
[5] = Plasma stability, overall statements for mouse, rat and human plasma; assay type: in vitro ADME; details: for plasma stability / half-life (Th) compared with parent peptide SEQ ID NO: 17: rat and human plasma
Description: as §1, §2, §3

[6] = tested on: recruitment of eosinophils; details: animal model of allergic airway inflammation; from WO2009106819; cited from earlier work
[7] = Table 7, same conditions as Example 3, read-out: Plasma half life Mouse
[8] = Table 7, same conditions as Example 3, read-out: Plasma half life Man
[9] = Table 7, same conditions as Example 3, read-out: Plasma half life Rat
[10] = Table 4, read-out: Plasma half life Mouse
[11] = Table 4, read-out: Plasma half life Man
[12] = Table 4, read-out: Plasma half life Rat

CC(C)C[C@H](NC(=O)CNC(=O)[C@H](N)Cc1c[nH]cn1)C(=O)N[C@@H](CC(N)=O)C(=O)N[C@H](C(=O)N[C@@H](CC(N)=O)C(=O)N[C@H](C(=O)N[C@@H](CC(C)C)C(=O)N[C@@H](CO)C(=O)N[C@@H](Cc1ccc(O)cc1)C(=O)NCC(=O)N[C@H](CC(=O)O)C(N)=O)[C@@H](C)O)C(C)C [SEQ ID NO: 14, hGLNVNTLSYGd-NH2]
half-life [1, 7]: 0.833 h
half-life [2, 8]: 2.58 h
half-life [3, 9]: 2.55 h

CC(C)C[C@H](NC(=O)CNC(=O)[C@@H](N)Cc1c[nH]cn1)C(=O)N[C@@H](CC(N)=O)C(=O)N[C@H](C(=O)N[C@@H](CC(N)=O)C(=O)N[C@H](C(=O)N[C@@H](CC(C)C)C(=O)N[C@@H](CO)C(=O)N[C@@H](Cc1ccc(O)cc1)C(=O)NCC(=O)N[C@H](CC(=O)O)C(N)=O)[C@@H](C)O)C(C)C [SEQ ID NO: 15, HGLNVNTLSYGd-NH2]
half-life [1, 7]: 0.65 h
half-life [2, 8]: 1.4 h
half-life [3, 9]: 3.03 h

CC(C)C[C@H](NC(=O)CNC(=O)[C@H](N)Cc1c[nH]cn1)C(=O)N[C@@H](CC(N)=O)C(=O)N[C@H](C(=O)N[C@@H](CC(N)=O)C(=O)N[C@H](C(=O)N[C@@H](CC(C)C)C(=O)N[C@@H](CO)C(=O)N[C@@H](Cc1ccc(O)cc1)C(=O)NCC(=O)N[C@@H](CC(=O)O)C(N)=O)[C@@H](C)O)C(C)C [SEQ ID NO: 16, hGLNVNTLSYGD-NH2]
half-life [1, 7]: 0.583 h
half-life [2, 8]: 1.85 h
half-life [3, 9]: 3.33 h

CC(C)C[C@H](NC(=O)CNC(=O)[C@@H](N)Cc1c[nH]cn1)C(=O)N[C@@H](CC(N)=O)C(=O)N[C@H](C(=O)N[C@@H](CC(N)=O)C(=O)N[C@H](C(=O)N[C@@H](CC(C)C)C(=O)N[C@@H](CO)C(=O)N[C@@H](Cc1ccc(O)cc1)C(=O)NCC(=O)N[C@@H](CC(=O)O)C(N)=O)[C@@H](C)O)C(C)C [SEQ ID NO: 17, HGLNVNTLSYGD-NH2]
half-life ([1]; Table 3, 37° C., peptide 3 μM, read-out: Plasma Half Life (Th) Mouse): 0.333 h
effect on LPS induced lung neutrophil influx (number of neutrophils) ([4]; different doses (0.5, 5 or 50 pg/mouse)): reduction in the number of neutrophils
half-life ([2]; Table 3, 37° C., peptide 3 μM, read-out: Plasma Half Life (Th) Man): 1.2 h
half-life ([3]; Table 3, 37° C., peptide 3 μM, read-out: Plasma Half Life (Th) Rat): 0.717 h

CC(=O)N[C@H](CC(=O)O)C(=O)NCC(=O)N[C@H](Cc1ccc(O)cc1)C(=O)N[C@H](CO)C(=O)N[C@H](CC(C)C)C(=O)N[C@@H](C(=O)N[C@H](CC(N)=O)C(=O)N[C@@H](C(=O)N[C@H](CC(N)=O)C(=O)N[C@H](CC(C)C)C(=O)NCC(=O)N[C@H](Cc1c[nH]cn1)C(N)=O)C(C)C)[C@H](C)O [SEQ ID NO: 19, Ac-dGysltnvnlGh-NH2]
half-life [1, 7]: > 6 h
half-life [2, 8]: > 6 h
plasma stability / half-life (Th) compared with parent peptide SEQ ID NO: 17 [5]: enhanced plasma stability
half-life [3, 9]: > 6 h

CC(=O)N[C@H](Cc1c[nH]cn1)C(=O)NCC(=O)N[C@H](CC(C)C)C(=O)N[C@H](CC(N)=O)C(=O)N[C@@H](C(=O)N[C@H](CC(N)=O)C(=O)N[C@@H](C(=O)N[C@H](CC(C)C)C(=O)N[C@H](CO)C(=O)N[C@H](Cc1ccc(O)cc1)C(=O)NCC(=O)N[C@H](CC(=O)O)C(N)=O)[C@H](C)O)C(C)C [SEQ ID NO: 20, Ac-hGlnvntlsyGd-NH2]
half-life [1, 7]: > 6 h
half-life [2, 8]: > 6 h
plasma stability / half-life (Th) compared with parent peptide SEQ ID NO: 17 [5]: enhanced plasma stability
half-life [3, 9]: 3.03 h

CC(C)C[C@@H]1NC(=O)CNC(=O)[C@H](Cc2c[nH]cn2)NC(=O)[C@H](CC(=O)O)NC(=O)CNC(=O)[C@H](Cc2ccc(O)cc2)NC(=O)[C@H](CO)NC(=O)[C@H](CC(C)C)NC(=O)[C@H]([C@@H](C)O)NC(=O)[C@H](CC(N)=O)NC(=O)[C@H](C(C)C)NC(=O)[C@H](CC(N)=O)NC1=O [SEQ ID NO: 25, cyclic-HGLNVNTLSYGD-]
half-life [1, 7]: 0.167 h
half-life [2, 8]: 0.75 h
plasma stability / half-life (Th) compared with parent peptide SEQ ID NO: 17 [5]: did not improve plasma stability
half-life [3, 9]: 0.35 h

H-DGSVVVNKVSEL-NH2 [SEQ ID NO: 3, DGSVVVNKVSEL-NH2]
efficacy against LPS induced lung neutrophil influx ([4]; dosed up to 60 mins prior to LPS challenge (FIG. 2)): efficacious
efficacy against LPS induced lung neutrophil influx ([4]; dosed up to 120 mins post LPS challenge (FIG. 3)): efficacious
efficacy in the LPS mouse model ([4]; dosed intravenously): effective

H-DGSVVVNKVSELPAGHGLNVNTLSYGDLAAD [SEQ ID NO: 1, reference compound]
recruitment of eosinophils [6]: significantly reduce the recruitment of eosinophils
inhibition of LPS induced lung neutrophil influx ([4]; dosed intravenously immediately prior to LPS challenge): significant inhibition; also recorded: only demonstrates efficacy when dosed immediately prior to LPS challenge
activity against LPS induced lung neutrophil influx ([4]; i.v., given at earlier (FIG. 1) or later (FIG. 4) time points than LPS challenge): looses its activity

H-GLNVNTLSYGDLAAD [SEQ ID NO: 23, GLNVNTLSYGDLAAD, reference compound]
half-life [1, 10]: 1.03 h
half-life [2, 11]: > 5.62 h
half-life [3, 12]: > 5.13 h

H-SELPAGHGLNVNTLS [SEQ ID NO: 5, SELPAGHGLNVNTLS]
half-life [1, 10]: 0.2 h
half-life [2, 11]: 1.85 h
half-life [3, 12]: 1.32 h

H-SELPAGHGLNVNTLSYGDLAAD [SEQ ID NO: 4]
half-life ([1]; Table 5, read-out: Plasma half-life Mouse): > 6 h
in vivo efficacy in the mouse LPS lung inflammation model ([4]; 0.5, 5 and 500 pg/dose (FIG. 7)): maintained in vivo efficacy
half-life ([2]; Table 5, read-out: Plasma half-life Man): > 6 h
plasma half-life compared with fragment 3 (SEQ ID NO: 5) ([5]; rat and human plasma (Table 5 vs Table 4)): superior half-life
half-life ([3]; Table 5, read-out: Plasma half-life Rat): > 6 h
